From patent US9518052B2, “Pyrazolopyridines and pyrazolopyrimidines” (Pfizer Inc., priority 2014, dated 2016) come the findings set out here.

For orientation: pIC50 means −log10 of the IC50, conventionally taken in molar units. Low readings indicate a large IC50, high ones a small IC50.

pIC50: −log10 of the molar value. Where a name gives a salt, the structure may show the parent alone.

Holding throughout (assay type): biochemical
Details in all cases: Caliper assay at 1 mM ATP

One test deals with JAK1 (Homo sapiens (Human), UniProt P23458). The test is described as follows: JAK Caliper Enzyme Assay at 1 mM ATP (JAK1). Here is the method: (§1) JAK Caliper Enzyme Assay at 1 mM ATP
(§2) Test article was solubilized in dimethyl sulfoxide (DMSO) to a stock concentration of 30 mM. An 11-point half log dilution series was created in DMSO with a top concentration of 600 μM. […] The compound plates were diluted 1 to 60 resulting in a top final assay compound concentration of 10 μM and a 2% DMSO concentration.
(§3) Test article and assay controls were added to a 384-well plate. Reaction mixtures contained 20 mM HEPES, pH 7.4, 10 mM magnesium chloride, 0.01% bovine serum albumin (BSA), 0.0005% Tween 20, 1 mM ATP and 1 μM peptide substrate. […] Enzyme concentrations and incubation times were optimized for each new enzyme preps and were modified slightly over time to ensure 20%-30% phosphorylation. The assays were stopped with a final concentration of 10 mM EDTA, 0.1% Coating Reagent and 100 mM HEPES, pH=7.4. The assay plates were placed on a Caliper Life Science Lab Chip 3000 (LC3000) instrument, and each well was sampled using appropriate separation conditions to measure the unphosphorylated and phosphorylated peptide.

A further test concerns the target JAK2 (Homo sapiens (Human), UniProt O60674). As to the kind of experiment: JAK Caliper Enzyme Assay at 1 mM ATP (JAK2). As for the experimental part: as §1, §2, §3
The next test addresses JAK3 (Homo sapiens (Human), UniProt P52333). As to the kind of experiment: JAK Caliper Enzyme Assay at 1 mM ATP (JAK3). Here is the method:
as §1, §2, §3

The target in a further test is TYK2 (Homo sapiens (Human), UniProt P29597). As to the kind of experiment: JAK Caliper Enzyme Assay at 1 mM ATP (TYK2). As for the experimental part:
as §1, §2, §3

Sequence of JAK3 (P52333 whole entry, species assumed): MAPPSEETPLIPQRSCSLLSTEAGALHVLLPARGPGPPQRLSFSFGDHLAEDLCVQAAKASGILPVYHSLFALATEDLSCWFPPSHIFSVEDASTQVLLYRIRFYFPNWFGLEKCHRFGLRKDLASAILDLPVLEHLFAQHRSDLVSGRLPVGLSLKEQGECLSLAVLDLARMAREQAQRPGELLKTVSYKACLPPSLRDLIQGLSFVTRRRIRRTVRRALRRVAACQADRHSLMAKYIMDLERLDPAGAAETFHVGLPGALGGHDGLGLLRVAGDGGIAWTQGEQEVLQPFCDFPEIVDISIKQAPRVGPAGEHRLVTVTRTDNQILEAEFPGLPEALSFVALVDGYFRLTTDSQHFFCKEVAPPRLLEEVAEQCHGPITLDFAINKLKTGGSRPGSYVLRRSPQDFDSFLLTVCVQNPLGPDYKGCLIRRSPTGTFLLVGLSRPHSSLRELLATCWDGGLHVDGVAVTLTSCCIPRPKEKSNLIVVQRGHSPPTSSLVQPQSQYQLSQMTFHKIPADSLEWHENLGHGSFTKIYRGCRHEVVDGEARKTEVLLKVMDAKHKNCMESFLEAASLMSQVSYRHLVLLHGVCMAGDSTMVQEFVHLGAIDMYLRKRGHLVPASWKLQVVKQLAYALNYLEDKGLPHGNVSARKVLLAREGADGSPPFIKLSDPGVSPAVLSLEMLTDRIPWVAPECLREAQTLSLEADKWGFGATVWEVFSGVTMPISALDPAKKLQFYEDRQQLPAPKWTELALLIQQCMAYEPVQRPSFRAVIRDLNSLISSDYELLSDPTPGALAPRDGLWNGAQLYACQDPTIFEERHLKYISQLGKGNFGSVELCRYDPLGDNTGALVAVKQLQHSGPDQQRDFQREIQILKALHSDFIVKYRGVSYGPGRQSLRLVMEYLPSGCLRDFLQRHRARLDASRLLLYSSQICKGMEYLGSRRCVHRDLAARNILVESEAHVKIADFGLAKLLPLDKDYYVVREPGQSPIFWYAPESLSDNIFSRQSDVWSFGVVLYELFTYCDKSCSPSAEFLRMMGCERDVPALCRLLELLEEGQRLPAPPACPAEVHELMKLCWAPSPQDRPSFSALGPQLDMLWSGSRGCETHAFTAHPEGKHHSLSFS
Sequence of JAK1 (P23458 whole entry, species assumed): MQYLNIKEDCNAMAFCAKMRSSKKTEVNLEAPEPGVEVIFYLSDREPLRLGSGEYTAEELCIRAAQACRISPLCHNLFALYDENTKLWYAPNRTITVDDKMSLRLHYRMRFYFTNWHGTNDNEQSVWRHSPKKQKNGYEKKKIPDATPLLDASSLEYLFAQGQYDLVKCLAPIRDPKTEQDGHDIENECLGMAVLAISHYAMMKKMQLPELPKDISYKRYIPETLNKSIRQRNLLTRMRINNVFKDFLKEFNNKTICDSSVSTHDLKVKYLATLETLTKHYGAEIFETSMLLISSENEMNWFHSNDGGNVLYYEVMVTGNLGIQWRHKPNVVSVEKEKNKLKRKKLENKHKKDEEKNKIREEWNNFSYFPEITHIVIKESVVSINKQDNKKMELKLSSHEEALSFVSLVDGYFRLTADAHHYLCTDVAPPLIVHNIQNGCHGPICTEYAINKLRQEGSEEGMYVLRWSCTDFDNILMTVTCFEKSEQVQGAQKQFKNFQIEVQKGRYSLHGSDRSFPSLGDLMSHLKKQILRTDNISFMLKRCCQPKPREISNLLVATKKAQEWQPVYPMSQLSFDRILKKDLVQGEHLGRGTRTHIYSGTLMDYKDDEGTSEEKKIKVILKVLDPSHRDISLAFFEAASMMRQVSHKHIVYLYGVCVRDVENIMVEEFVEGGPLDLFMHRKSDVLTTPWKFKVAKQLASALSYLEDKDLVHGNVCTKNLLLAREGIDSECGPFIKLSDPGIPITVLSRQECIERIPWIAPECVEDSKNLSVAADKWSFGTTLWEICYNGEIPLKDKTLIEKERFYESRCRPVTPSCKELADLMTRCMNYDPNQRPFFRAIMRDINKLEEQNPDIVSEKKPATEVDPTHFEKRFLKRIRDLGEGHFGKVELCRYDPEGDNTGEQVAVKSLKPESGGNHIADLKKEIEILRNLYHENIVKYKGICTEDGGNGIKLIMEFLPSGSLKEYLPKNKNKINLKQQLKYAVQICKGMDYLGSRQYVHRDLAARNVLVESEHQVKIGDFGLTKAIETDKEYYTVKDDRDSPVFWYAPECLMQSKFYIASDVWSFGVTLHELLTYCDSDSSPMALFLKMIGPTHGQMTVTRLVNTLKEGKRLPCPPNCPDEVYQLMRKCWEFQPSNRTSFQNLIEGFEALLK
Sequence of TYK2 (P29597 whole entry, species assumed): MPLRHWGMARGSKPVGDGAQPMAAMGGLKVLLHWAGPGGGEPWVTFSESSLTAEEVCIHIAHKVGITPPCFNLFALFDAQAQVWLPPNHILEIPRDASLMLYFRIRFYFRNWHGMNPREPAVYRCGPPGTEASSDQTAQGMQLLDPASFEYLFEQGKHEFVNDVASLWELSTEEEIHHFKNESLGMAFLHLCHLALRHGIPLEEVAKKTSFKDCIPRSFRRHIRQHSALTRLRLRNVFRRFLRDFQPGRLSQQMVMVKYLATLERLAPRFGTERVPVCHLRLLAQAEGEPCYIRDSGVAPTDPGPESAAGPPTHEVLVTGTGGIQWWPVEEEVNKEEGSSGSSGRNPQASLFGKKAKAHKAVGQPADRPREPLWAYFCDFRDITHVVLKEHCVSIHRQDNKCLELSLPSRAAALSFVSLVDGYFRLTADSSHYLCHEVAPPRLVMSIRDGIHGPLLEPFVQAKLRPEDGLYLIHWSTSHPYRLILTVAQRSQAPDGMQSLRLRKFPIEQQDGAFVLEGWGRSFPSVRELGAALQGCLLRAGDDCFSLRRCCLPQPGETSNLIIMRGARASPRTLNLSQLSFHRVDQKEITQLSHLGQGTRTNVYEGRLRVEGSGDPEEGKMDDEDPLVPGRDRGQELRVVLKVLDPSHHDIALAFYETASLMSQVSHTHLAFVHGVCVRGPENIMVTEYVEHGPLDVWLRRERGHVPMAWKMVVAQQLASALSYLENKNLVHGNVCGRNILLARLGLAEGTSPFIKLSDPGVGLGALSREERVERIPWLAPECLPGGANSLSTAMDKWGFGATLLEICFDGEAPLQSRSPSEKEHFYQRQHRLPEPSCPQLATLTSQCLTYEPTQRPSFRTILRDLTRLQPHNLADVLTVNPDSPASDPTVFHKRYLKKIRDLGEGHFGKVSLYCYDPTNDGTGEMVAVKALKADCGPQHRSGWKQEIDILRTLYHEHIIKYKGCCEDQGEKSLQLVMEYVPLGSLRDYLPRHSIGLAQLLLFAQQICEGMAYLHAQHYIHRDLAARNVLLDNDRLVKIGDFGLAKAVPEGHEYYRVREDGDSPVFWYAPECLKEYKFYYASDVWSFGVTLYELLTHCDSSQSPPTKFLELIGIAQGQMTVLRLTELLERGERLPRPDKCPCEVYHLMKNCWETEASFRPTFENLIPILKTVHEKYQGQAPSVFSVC
Sequence of JAK2 (O60674 whole entry, species assumed): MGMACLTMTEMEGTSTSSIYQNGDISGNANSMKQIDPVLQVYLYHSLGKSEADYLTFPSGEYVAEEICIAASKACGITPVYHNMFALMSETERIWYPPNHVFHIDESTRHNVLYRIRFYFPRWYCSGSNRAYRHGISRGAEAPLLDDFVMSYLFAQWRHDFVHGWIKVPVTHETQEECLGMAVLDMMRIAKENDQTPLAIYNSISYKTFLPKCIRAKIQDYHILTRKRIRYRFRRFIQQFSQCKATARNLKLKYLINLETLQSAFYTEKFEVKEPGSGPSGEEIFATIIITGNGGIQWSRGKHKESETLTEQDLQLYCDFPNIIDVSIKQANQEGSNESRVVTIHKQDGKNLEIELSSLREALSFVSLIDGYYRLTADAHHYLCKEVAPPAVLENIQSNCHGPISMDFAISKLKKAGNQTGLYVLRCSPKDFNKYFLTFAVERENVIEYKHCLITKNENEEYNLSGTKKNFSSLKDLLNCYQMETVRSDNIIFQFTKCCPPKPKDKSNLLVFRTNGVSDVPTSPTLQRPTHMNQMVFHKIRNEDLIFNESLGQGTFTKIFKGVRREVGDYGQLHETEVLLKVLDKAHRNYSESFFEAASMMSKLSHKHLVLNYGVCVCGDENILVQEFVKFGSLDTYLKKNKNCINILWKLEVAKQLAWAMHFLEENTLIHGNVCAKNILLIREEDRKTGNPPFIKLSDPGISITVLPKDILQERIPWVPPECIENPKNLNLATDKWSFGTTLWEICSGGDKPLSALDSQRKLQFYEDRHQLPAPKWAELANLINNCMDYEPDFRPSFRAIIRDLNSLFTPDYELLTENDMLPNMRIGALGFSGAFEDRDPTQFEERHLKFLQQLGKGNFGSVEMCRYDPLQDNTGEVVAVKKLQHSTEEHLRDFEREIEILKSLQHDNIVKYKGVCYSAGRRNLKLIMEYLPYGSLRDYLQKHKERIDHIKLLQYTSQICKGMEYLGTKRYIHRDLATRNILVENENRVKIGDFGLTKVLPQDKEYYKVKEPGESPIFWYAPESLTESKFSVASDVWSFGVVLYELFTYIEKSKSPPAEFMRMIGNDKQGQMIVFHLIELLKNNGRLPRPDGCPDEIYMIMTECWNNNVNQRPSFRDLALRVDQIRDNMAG

Turning to `CCc1cc(O)c(F)cc1-c1cc2[nH]nc(C(N)=O)c2c(NCc2ccc(O)cc2N(C)S(C)(=O)=O)n1` [Example 30, 6-(2-Ethyl-5-fluoro-4-hydroxyphenyl)-4-({4-hydroxy-2-[methyl(methylsulfonyl)amino]benzyl}amino)-1H-pyrazolo[4,3-c]pyridine-3-carboxamide], the pIC50 against JAK1 is 9.00; on JAK2, 8.24; on JAK3 it was 7.63; against TYK2, 7.54.

Consider `CN(c1ncc(Cl)cc1CNc1nc(-c2cc(F)c(O)cc2CC(F)(F)F)cc2[nH]nc(C(N)=O)c12)S(C)(=O)=O` [Example 72, 4-[({5-chloro-2-[methyl(methylsulfonyl)amino]pyridin-3-yl}methyl)amino]-6-[5-fluoro-4-hydroxy-2-(2,2,2-trifluoroethyl)phenyl]-1H-pyrazolo[4,3-c]pyridine-3-carboxamide], for which the pIC50 is 7.35 on JAK1, 6.87 at JAK2, 6.70 on JAK3 and 5.46 on TYK2.

Take `CCN(c1ccccc1CNc1nc(-c2cc(F)c(O)cc2CC(F)(F)F)cc2[nH]nc(C(=O)NC)c12)S(=O)(=O)CC` [Example 1, 4-({2-[Ethyl(ethylsulfonyl)amino]benzyl}amino)-6-[5-fluoro-4-hydroxy-2-(2,2,2-trifluoroethyl)phenyl]-N-methyl-1H-pyrazolo[4,3-c]pyridine-3-carboxamide]: the pIC50 on JAK1 is 8.10; on JAK2, 7.42; against JAK3, 6.75; at TYK2, 7.44.

In the case of `CCCCN(c1ccccc1CNc1nc(-c2cc(F)c(O)cc2CC)cc2[nH]ncc12)S(C)(=O)=O` [Example 139], the figures for the pIC50 at JAK2, on JAK3 and on TYK2 were 7.78, 7.56 and 5.70, respectively.

Take `CNC(=O)c1n[nH]c2nc(-c3cc(F)c(O)cc3CC(F)(F)F)nc(NCc3ccccc3N(C)S(N)(=O)=O)c12` [Example 109, 6-(5-Fluoro-4-hydroxy-2-(2,2,2-trifluoroethyl)phenyl)-N-methyl-4-((2-(methyl(sulfamoyl)amino)benzyl)amino)-1H-pyrazolo[3,4-d]pyrimidine-3-carboxamide]: the pIC50 at JAK1 is 8.19; at JAK2 it was 7.51; against JAK3, 6.97; against TYK2 it was 6.17.

On to `CCc1cc(O)c(F)cc1-c1cc2[nH]nc(C(=O)NC)c2c(NCc2c(F)cccc2N(C)S(C)(=O)=O)n1` [Example 8, 6-(2-ethyl-5-fluoro-4-hydroxyphenyl)-4-({2-fluoro-6-[methyl(methyl-sulfonyl)amino]benzyl}amino)-N-methyl-1H-pyrazolo[4,3-c]pyridine-3-carboxamide], for which the pIC50 was 8.77 at JAK1, 8.12 at JAK2, 7.47 against JAK3 and 8.24 on TYK2.

With `CCc1cc(O)c(F)cc1-c1cc2[nH]nc(C(=O)Nc3ccc(C)nc3)c2c(NCc2ccccc2N(C)S(C)(=O)=O)n1` [Example 56, 6-(2-ethyl-5-fluoro-4-hydroxy-phenyl)-4-({2-[methyl(methylsulfonyl)amino]benzyl}amino)-N-(6-methylpyridin-3-yl)-1H-pyrazolo[4,3-c]pyridine-3-carboxamide], the pIC50 was 8.18 at JAK1, 7.58 on JAK2, 6.87 at JAK3 and 7.70 against TYK2.

In the case of `CCc1cc(O)ccc1-c1cc2[nH]ncc2c(N2CC(C)(O)C2)n1` [Example 115, 1-[6-(2-ethyl-4-hydroxyphenyl)-1H-pyrazolo[4,3-c]pyridin-4-yl]-3-methylazetidin-3-ol formate], the pIC50 was 8.37 against JAK1, 8.00 against JAK2, 7.77 at JAK3 and 6.64 at TYK2.

`CCc1cc(O)ccc1-c1cc2[nH]ncc2c(N2CCc3ccc(S(=O)(=O)NCCN4CCCC4)cc3C2)n1` [Example 116, 2-[6-(2-ethyl-4-hydroxyphenyl)-1H-pyrazolo[4,3-c]pyridin-4-yl]-N-[2-(pyrrolidin-1-yl)ethyl]-1,2,3,4-tetrahydroisoquinoline-7-sulfonamide formate]: the pIC50 against JAK1 is 8.42; against JAK2 it was 8.00; on JAK3, 7.63; on TYK2, 6.79.

Take `CCCN(Cc1cc(C)ccc1N(C)S(C)(=O)=O)c1nc(-c2cc(F)c(O)cc2CC)cc2[nH]ncc12` [Example 144, N-[2-({[6-(2-ethyl-5-fluoro-4-hydroxyphenyl)-1H-pyrazolo[4,3-c]pyridin-4-yl](propyl)amino}-methyl)-4-methylphenyl]-N-methylmethanesulfonamide]: the pIC50 against JAK1 is 7.26; against JAK2, 7.15; at JAK3, 6.73; against TYK2, 5.06.

`CCc1cc(O)c(F)cc1-c1cc2[nH]nc(C(=O)NC)c2c(NCc2ccccc2N(CC)S(=O)(=O)CC)n1` [Example 2, 4-({2-[ethyl(ethylsulfonyl)-amino]benzyl}amino)-6-(2-ethyl-5-fluoro-4-hydroxyphenyl)-N-methyl-1H-pyrazolo[4,3-c]pyridine-3-carboxamide]: the pIC50 against JAK1 is 8.47; on JAK2, 7.77; at JAK3, 7.07; at TYK2, 7.92.

As to `CN(c1ncc(F)cc1CNc1nc(-c2cc(F)c(O)cc2CC(F)(F)F)cc2[nH]nc(C(N)=O)c12)S(C)(=O)=O` [Example 78, 6-[5-Fluoro-4-hydroxy-2-(2,2,2-trifluoroethyl)phenyl]-4-[({5-fluoro-2-[methyl(methyl-sulfonyl)amino]pyridin-3-yl}methyl)amino]-1H-pyrazolo[4,3-c]pyridine-3-carboxamide], the pIC50 is 8.23 at JAK1, 7.40 against JAK2, 7.05 against JAK3 and 6.03 at TYK2.

`CCc1cc(O)c(F)cc1-c1nc(NCc2ccccc2N(C)S(=O)(=O)c2ccccc2)c2c(C(N)=O)n[nH]c2n1` [Example 95, 6-(2-Ethyl-5-fluoro-4-hydroxyphenyl)-4-((2-(N-methylphenylsulfonamido)benzyl)amino)-1H-pyrazolo[3,4-d]pyrimidine-3-carboxamide]: the pIC50 against JAK1 is 8.17; at JAK2, 7.57; on JAK3, 7.08; against TYK2, 7.05.

Turning to `CC(CO)CNc1nc(-c2cc(F)c(O)cc2CC(F)(F)F)nc2[nH]nc(-c3nc4c([nH]3)CCN(Cc3ccccc3)C4)c12` (centres unmarked) [Example 173, 4-(3-(5-Benzyl-4,5,6,7-tetrahydro-1H-imidazo[4,5-c]pyridin-2-yl)-4-((3-hydroxy-2-methylpropyl)amino)-1H-pyrazolo[3,4-d]pyrimidin-6-yl)-2-fluoro-5-(2,2,2-trifluoroethyl)phenol], the pIC50 on JAK1 is 8.03; on JAK2, 7.30; at JAK3 it was 6.87; against TYK2, 6.74.

In the case of `CN(c1ncccc1CNc1nc(-c2cc(F)c(O)cc2CC(F)(F)F)cc2[nH]nc(C(N)=O)c12)S(C)(=O)=O` [Example 62, 6-[5-fluoro-4-hydroxy-2-(2,2,2-trifluoroethyl)phenyl]-4-[({2-[methyl(methyl-sulfonyl)amino]pyridin-3-yl}methyl)amino]-1H-pyrazolo[4,3-c]pyridine-3-carboxamide], the pIC50 against JAK1 is 8.54; at JAK2, 7.84; against JAK3, 7.40; at TYK2, 6.56.

As for `CCc1cc(O)ccc1-c1cc2[nH]ncc2c(N2CC(Oc3cc(C#N)ccc3Cl)C2)n1` [Example 120, 4-chloro-3-({1-[6-(2-ethyl-4-hydroxyphenyl)-1H-pyrazolo[4,3-c]pyridin-4-yl]azetidin-3-yl}oxy)benzonitrile formate], the negative-log IC50 (pIC50) is 7.97 on JAK1, 6.89 against JAK2 and 7.05 against JAK3.

On to `CCc1cc(O)ccc1-c1cc2[nH]ncc2c(NCc2c(C)cccc2N(C)S(C)(=O)=O)n1` [Example 127, N-[2-({[6-(2-ethyl-4-hydroxyphenyl)-1H-pyrazolo[4,3-c]pyridin-4-yl]amino}methyl)-3-methylphenyl]-N-methylmethanesulfonamide diethylamine salt], for which the values for the pIC50 against JAK1, against JAK2 and against TYK2 were 8.22, 7.83 and 6.20, respectively.

As to “N-ethyl-N-[2-({[6-(2-ethyl-5-fluoro-4-hydroxyphenyl)-1H-pyrazolo[4,3-c]pyridin-4-yl]amino}methyl)phenyl]ethanesulfonamide [Example 138]”, the negative logarithm of the IC50 (pIC50) is 8.59 against JAK2, 7.85 on JAK3 and 8.32 on TYK2.

On to `CNC(=O)c1n[nH]c2cc(-c3cc(F)c(O)cc3C3CC3)nc(NCc3cccnc3N(C)S(C)(=O)=O)c12` [Example 49, 6-(2-cyclopropyl-5-fluoro-4-hydroxyphenyl)-N-methyl-4-[({2-[methyl(methylsulfonyl)amino]pyridin-3-yl}methyl)amino]-1H-pyrazolo[4,3-c]pyridine-3-carboxamide], for which the pIC50 was 7.11 on JAK1, 6.74 against JAK2 and 6.61 against JAK3.

Regarding `CCc1cc(O)ccc1-c1cc2[nH]ncc2c(N2CCC(OC)CC2)n1` [Example 128, 3-ethyl-4-[4-(4-methoxypiperidin-1-yl)-1H-pyrazolo[4,3-c]pyridin-6-yl]phenol diethylamine salt], the pIC50 on JAK1 is 8.44; on JAK2, 7.90; on TYK2, 6.29.
